One test has as its system Kin^off LuxN mutants. As to the kind of experiment: Bioluminescence of V. harveyi XK006 harboring Kin^off biased luxN alleles. The test is classed as cell-based, Vibrio harveyi. The conditions noted are these: 10 μM 3O-C12 HSL.
The target of another test is LuxN (Vibrio campbellii, UniProt A7MRY4). The test is classed as cell-based, Vibrio harveyi. Particulars: IC50 values measured at various concentrations of AI-1.
In a further test the target is WT LuxN (Vibrio campbellii, UniProt A7MRY4). Particulars: XK847.
The target of the next test is T1, LuxN^G147D/Y194H (Vibrio campbellii, UniProt A7MRY4, G147D/Y194H).
T1 sequence (A7MRY4 1-849 G147D/Y194H): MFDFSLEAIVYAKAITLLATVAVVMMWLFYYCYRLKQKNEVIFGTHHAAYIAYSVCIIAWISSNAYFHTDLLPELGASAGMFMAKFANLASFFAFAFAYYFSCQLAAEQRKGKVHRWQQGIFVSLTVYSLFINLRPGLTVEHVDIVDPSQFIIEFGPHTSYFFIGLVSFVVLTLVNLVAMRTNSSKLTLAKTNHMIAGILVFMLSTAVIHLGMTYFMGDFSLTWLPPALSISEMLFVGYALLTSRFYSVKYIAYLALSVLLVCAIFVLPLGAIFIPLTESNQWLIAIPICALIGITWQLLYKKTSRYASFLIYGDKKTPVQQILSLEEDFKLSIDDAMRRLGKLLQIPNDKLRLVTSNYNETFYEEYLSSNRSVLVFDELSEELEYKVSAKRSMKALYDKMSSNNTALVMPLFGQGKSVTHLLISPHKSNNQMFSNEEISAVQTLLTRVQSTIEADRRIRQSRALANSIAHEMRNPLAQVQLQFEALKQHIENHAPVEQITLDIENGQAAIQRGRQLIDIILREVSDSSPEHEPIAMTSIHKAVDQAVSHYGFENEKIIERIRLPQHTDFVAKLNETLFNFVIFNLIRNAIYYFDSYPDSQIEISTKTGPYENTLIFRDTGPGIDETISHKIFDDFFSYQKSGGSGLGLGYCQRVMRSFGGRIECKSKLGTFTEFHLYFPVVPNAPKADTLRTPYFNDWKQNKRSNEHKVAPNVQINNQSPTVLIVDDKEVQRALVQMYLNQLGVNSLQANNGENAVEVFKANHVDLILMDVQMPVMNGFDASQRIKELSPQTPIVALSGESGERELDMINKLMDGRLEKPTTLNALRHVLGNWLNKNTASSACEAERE
As to the kind of experiment: Bioluminescence of V. harveyi XK006 carrying luxN G147D/Y194H. The conditions noted are these: 10 μM C8 HSL. The test is classed as cell-based, Vibrio harveyi.

The test system of another test is WT AinR. Kind of test: Bioluminescence of V. harveyi XK006 harboring WT V. fischeri ainR. The test is classed as cell-based, Vibrio fischeri.
In a further test the target is T2, LuxN^L166H/N176D (Vibrio campbellii, UniProt A7MRY4, L166H/N176D).
T2 sequence (A7MRY4 1-849 L166H/N176D): T1 sequence (A7MRY4 1-849 G147D/Y194H) with D147G, L166H, N176D, H194Y
Kind of test: Bioluminescence of V. harveyi XK006 carrying luxN L166H/N176D. The test is classed as cell-based, Vibrio harveyi. The conditions noted are these: 10 μM C8 HSL.

For test [1], the system named is AinR Ser^203 replaced by Ile. Kind of test: Bioluminescence of V. harveyi XK006 harboring ainR S203I. The test is classed as cell-based, Vibrio fischeri.
A further test has as its target LuxN^L166A (Vibrio campbellii, UniProt A7MRY4, L166A).
The next test relates to AinR^Q204H. Kind of test: Bioluminescence of V. harveyi XK006 harboring ainR Q204H. The test is classed as cell-based, Vibrio fischeri.
The target in a further test is luxN^L166A/H210N (Vibrio campbellii, UniProt A7MRY4, H210N/L166A). Particulars: AHLs added at 1 μM.

Positions count from the first letter of the chain named. “Also recorded” adds a separate entry of the source.

From PMC4275348 (Molecular microbiology, 2014) come the findings set out here.

For the molecule `CCCCCCCCCC(=O)CC(=O)N[C@H]1CCOC1=O` [3O-C12 HSL], the “inhibition of light production” value in the test on Kin^off LuxN mutants was “inhibited light production to basal levels; also recorded: reduced light production to basal levels”. Also, the mechanism of antagonism entry at LuxN is listed as “competitive”. The light production phenotype entry at WT LuxN is listed as “completely dark phenotype”.
As to `CCCCCCCC(=O)N[C@H]1CCOC1=O` [C8 HSL], the “induction of light production” value on LuxN^G147D/Y194H is listed as 10 fold. Moreover, the light production entry is reported as “light production was induced” in the test on WT AinR (AHLs added at 1 μM) and “produced maximal light” at luxN^L166A/H210N. Further, in the test with WT AinR (dose response (Table S3)), the “sensitivity of the reporter” value is “most sensitive”. In addition, the “higher light compared to DMSO or 20 nM AI-1” value at LuxN^L166H/N176D worked out at 3 fold. Also, the “detection (light production)” value was “most potent agonist” in test [1], “only modest detection” on LuxN^L166A and “retained the capability to detect” in the test with AinR^Q204H. For the same molecule, the mechanism of antagonism result at LuxN was “behaved similarly to 3O-C12 HSL”.
